{"source": "patent US20230345946A1", "about": "“ANTIVIRAL SURFACES COMPRISING POLYOXOMETALATES AND ZINC MOLYBDATE” (FRIDA GROUP APS, priority 2020, published 2023)", "key": {"coronaviruses [1]": {"system": "coronaviruses", "assay": "Killing of coronaviruses on treated surfaces versus a control surface", "conditions": "in 2 hours", "procedure": "88% more coronaviruses were killed on the treated surfaces than on a control surface, also in 2 hours."}, "coronaviruses [2]": {"system": "coronaviruses", "assay": "EN 14476 (Liquid Disinfectant Test)", "conditions": "in 2 hours"}}, "data": [{"substance": "Paramolybdotungstate [Paramolybdotungstate Mo:W 1:1]", "values": [{"measurement": "more coronaviruses killed on treated surfaces than on a control surface", "setting": "coronaviruses [1]", "result": 88, "unit": "%"}, {"measurement": "log reduction of coronaviruses", "setting": "coronaviruses [2]", "result": 4, "unit": "log"}]}]}
